# From ChEMBL document CHEMBL1154879, “Discovery of (thienopyrimidin-2-yl)aminopyrimidines as potent, selective, and orally available pan-PI3-kinase and dual pan-PI3-kinase/mTOR inhibitors for the treatment of cancer” (J Med Chem, 2010)
# The source made the active and inactive calls. No cut-off for these calls is given here.
# Experiments:
# [1] = Protein binding in mouse plasma; assay type: ADME, cell-free; conditions: read-out: PPB (converted)
# Mus musculus [2] = test: Inhibition of PI3K/Akt/mTOR pathway signaling in PI3Kalpha mutant expressing human MCF7.1 cells xenografted nu/nu mouse assessed as inhibition of S6RP Ser235/236 phosphorylation at 10 mg/kg, po qd for 21 days measured 4 hrs after last administered dose on day 21 by electrochemiluminescence assay; assay type: functional
# [3] = Half life in nu/nu mouse at 5 mg/kg, po; assay type: ADME, organism-based; design: dose 5 mg/kg, route oral; conditions: in vivo
# Mus musculus [4] = test: Toxicity in human PC3 cells xenografted nu/nu mouse assessed as body weight loss at 1 mg/kg, po qd for 14 days; assay type: organism-based, PC-3; design: dose 1 mg/kg, route oral; conditions: in vivo, 336 h
# PC-3 [5] = test: Antitumor activity against human PC3 cells xenografted in nu/nu mouse assessed as inhibition of tumor growth at 1 mg/kg, po qd for 14 days; assay type: functional, organism-based; design: dose 1 mg/kg
# [6] = Protein binding in rat plasma; assay type: ADME, cell-free; conditions: read-out: PPB (converted)
# [7] = AUC in Beagle dog at 2 mg/kg, po; assay type: ADME, organism-based, Canis lupus familiaris; design: dose 2 mg/kg, route oral; conditions: plasma
# [8] = biological target: Serine/threonine-protein kinase mTOR (Homo sapiens, UniProt P42345)
# [9] = biological target: Tyrosine-protein kinase SYK (Homo sapiens, UniProt P43405); test: Inhibition of SYK
# [10] = Oral bioavailability in Sprague-Dawley rat at 5 mg/kg, po; assay type: ADME, organism-based; conditions: in vivo
# [11] = biological target: Phosphatidylinositol 3-kinase catalytic subunit type 3 (Homo sapiens) (UniProt Q8NEB9); test: Inhibition of VPS34 at 1 uM
# [12] = AUC in Sprague-Dawley rat at 5 mg/kg, po; assay type: ADME, organism-based; design: dose 5 mg/kg, route oral; conditions: plasma
# [13] = Clearance in Beagle dog at 1 mg/kg, iv; assay type: ADME, organism-based, Canis lupus familiaris; design: dose 1 mg/kg, route intravenous; conditions: in vivo
# [14] = Clearance in nu/nu mouse at 1 mg/kg, iv; assay type: ADME, organism-based; design: dose 1 mg/kg, route intravenous; conditions: in vivo
# [15] = Clearance in Sprague-Dawley rat at 1 mg/kg, iv; assay type: ADME, organism-based; design: dose 1 mg/kg, route intravenous; conditions: in vivo
# [16] = Cmax in Sprague-Dawley rat at 5 mg/kg, po; assay type: ADME, organism-based; design: dose 5 mg/kg, route oral; conditions: in vivo
# [17] = Cmax in nu/nu mouse at 5 mg/kg, po; assay type: ADME, organism-based; design: dose 5 mg/kg, route oral; conditions: in vivo
# Mus musculus [18] = test: Inhibition of PI3K/Akt/mTOR pathway signaling in PI3Kalpha mutant expressing human MCF7.1 cells xenografted nu/nu mouse assessed as inhibition of Pras40 Thr246 phosphorylation at 10 mg/kg, po qd for 21 days measured 4 hrs after last administered dose on day 21 by ELISA; assay type: functional
# Mus musculus [19] = test: Inhibition of PI3K/Akt/mTOR pathway signaling in PI3Kalpha mutant expressing human MCF7.1 cells xenografted nu/nu mouse assessed as inhibition of S6RP Ser235/236 phosphorylation at 10 mg/kg, po qd for 21 days measured 1 hr after last administered dose on day 21 by electrochemiluminescence assay; assay type: functional
# [20] = Volume of distribution at steady state in cynomolgus monkey at 1 mg/kg, iv; assay type: ADME, organism-based, Macaca fascicularis; design: dose 1 mg/kg, route intravenous; conditions: in vivo, read-out: Vdss
# [21] = Cmax in Beagle dog at 2 mg/kg, po; assay type: ADME, organism-based, Canis lupus familiaris; design: dose 2 mg/kg, route oral; conditions: in vivo
# [22] = Volume of distribution at steady state in Sprague-Dawley rat at 1 mg/kg, iv; assay type: ADME, organism-based; design: dose 1 mg/kg, route intravenous; conditions: in vivo, read-out: Vdss
# [23] = Oral bioavailability in cynomolgus monkey at 2 mg/kg, po; assay type: ADME, organism-based, Macaca fascicularis; conditions: in vivo
# [24] = Oral bioavailability in Sprague-Dawley rat at 2 mg/kg; assay type: ADME, organism-based; conditions: in vivo
# [25] = Protein binding in cynomolgus monkey plasma; assay type: ADME, cell-free, Macaca fascicularis; conditions: read-out: PPB (converted)
# [26] = biological target: Mitogen-activated protein kinase kinase kinase 9 (Homo sapiens, UniProt P80192); test: Inhibition of MLK1
# PC-3 [27] = test: Antitumor activity against human PC3 cells xenografted in nu/nu mouse assessed as inhibition of tumor growth at 10 mg/kg, po qd for 14 days; assay type: functional; conditions: PC-3, 336 h, read-out: TGI
# PC-3 [28] = test: Antiproliferative activity against human PC3 cells deficient in PTEN in after 3 to 4 days; assay type: functional, cell-based
# [29] = Cmax in cynomolgus monkey at 2 mg/kg, po; assay type: ADME, organism-based, Macaca fascicularis; design: dose 2 mg/kg, route oral; conditions: in vivo
# [30] = Volume of distribution at steady state in nu/nu mouse at 1 mg/kg, iv; assay type: ADME, organism-based; design: dose 1 mg/kg, route intravenous; conditions: in vivo, read-out: Vdss
# [31] = Oral bioavailability in nu/nu mouse at 5 mg/kg, po; assay type: ADME, organism-based; conditions: in vivo
# [32] = biological target: Phosphatidylinositol 4-phosphate 3-kinase C2 domain-containing subunit alpha (Homo sapiens) (UniProt O00443); test: Inhibition of PIK3C2alpha at 1 uM
# Mus musculus [33] = test: Inhibition of PI3K/Akt/mTOR pathway signaling in PI3Kalpha mutant expressing human MCF7.1 cells xenografted nu/nu mouse assessed as inhibition of Akt Ser473 phosphorylation at 10 mg/kg, po qd for 21 days measured 4 hrs after last administered dose on day 21 by electrochemiluminescence assay; assay type: functional
# [34] = biological target: Phosphatidylinositol 4-kinase beta (Homo sapiens) (UniProt Q9UBF8); test: Inhibition of PI4Kbeta at 1 uM
# Mus musculus [35] = test: Inhibition of PI3K/Akt/mTOR pathway signaling in PI3Kalpha mutant expressing human MCF7.1 cells xenografted nu/nu mouse assessed as inhibition of Akt Ser473 phosphorylation at 10 mg/kg, po qd for 21 days measured 1 hr after last administered dose on day 21 by electrochemiluminescence assay; assay type: functional
# [36] = Clearance in Sprague-Dawley rat liver microsomes; assay type: ADME, Microsome
# [37] = Antitumor activity against human MCF7.1 cells expressing PI3Kalpha mutant xenografted in nu/nu mouse assessed as inhibition of tumor growth at 10 mg/kg, po qd for 21 days; assay type: functional; conditions: MCF7.1, 504 h, read-out: TGI
# [38] = Clearance in cynomolgus monkey at 1 mg/kg, iv; assay type: ADME, organism-based, Macaca fascicularis; design: dose 1 mg/kg, route intravenous; conditions: in vivo
# Mus musculus [39] = test: Toxicity in human MCF7.1 cells expressing PI3Kalpha mutant xenografted nu/nu mouse assessed as body weight loss at 10 mg/kg, po qd for 21 days; assay type: organism-based; design: dose 10 mg/kg, route oral; conditions: in vivo, 504 h
# [40] = biological target: Phosphatidylinositol 4-phosphate 3-kinase C2 domain-containing subunit beta (Homo sapiens) (UniProt O00750); test: Inhibition of PIK3C2beta at 1 uM
# [41] = Oral bioavailability in Beagle dog at 2 mg/kg, po; assay type: ADME, organism-based, Canis lupus familiaris; conditions: in vivo
# Mus musculus [42] = test: Inhibition of PI3K/Akt/mTOR pathway signaling in PI3Kalpha mutant expressing human MCF7.1 cells xenografted nu/nu mouse assessed as inhibition of Pras40 Thr246 phosphorylation at 10 mg/kg, po qd for 21 days measured 1 hr after last administered dose on day 21 by ELISA; assay type: functional
# PC-3 [43] = test: Antitumor activity against human PC3 cells xenografted in nu/nu mouse assessed as reduction of tumor volume at 10 mg/kg, po qd for 14 days; assay type: functional; design: scale not given: the % may be the effect or the level left
# Aurora kinase A = biological target: T1, Aurora kinase A (Homo sapiens, UniProt O14965); test: Inhibition of Aurora A kinase
# T1 sequence (O14965 whole entry): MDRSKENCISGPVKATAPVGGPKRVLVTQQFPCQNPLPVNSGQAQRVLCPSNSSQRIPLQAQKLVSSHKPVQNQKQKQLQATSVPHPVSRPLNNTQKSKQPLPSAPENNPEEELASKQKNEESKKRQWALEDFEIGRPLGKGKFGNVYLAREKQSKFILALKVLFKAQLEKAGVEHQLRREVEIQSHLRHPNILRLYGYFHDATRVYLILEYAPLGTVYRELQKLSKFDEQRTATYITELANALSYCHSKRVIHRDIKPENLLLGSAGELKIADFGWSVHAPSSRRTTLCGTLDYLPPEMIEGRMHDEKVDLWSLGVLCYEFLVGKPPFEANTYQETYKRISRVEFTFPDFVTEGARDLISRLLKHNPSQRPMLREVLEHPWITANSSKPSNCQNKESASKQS
# [44] = Protein binding in Beagle dog plasma; assay type: ADME, cell-free, Canis lupus familiaris; conditions: read-out: PPB (converted)
# Mus musculus [45] = test: Toxicity in human PC3 cells xenografted nu/nu mouse assessed as body weight loss at 10 mg/kg, po qd for 14 days; assay type: organism-based, PC-3; design: dose 10 mg/kg, route oral; conditions: in vivo, 336 h
# [46] = AUC in nu/nu mouse at 5 mg/kg, po; assay type: ADME, organism-based; design: dose 5 mg/kg, route oral; conditions: plasma
# [47] = Volume of distribution at steady state in Beagle dog at 1 mg/kg, iv; assay type: ADME, organism-based, Canis lupus familiaris; design: dose 1 mg/kg, route intravenous; conditions: in vivo, read-out: Vdss
# [48] = AUC in cynomolgus monkey at 2 mg/kg, po; assay type: ADME, organism-based, Macaca fascicularis; design: dose 2 mg/kg, route oral; conditions: plasma
# Chain of Phosphatidylinositol 3-kinase catalytic subunit type 3 (Homo sapiens) (Q8NEB9 whole entry): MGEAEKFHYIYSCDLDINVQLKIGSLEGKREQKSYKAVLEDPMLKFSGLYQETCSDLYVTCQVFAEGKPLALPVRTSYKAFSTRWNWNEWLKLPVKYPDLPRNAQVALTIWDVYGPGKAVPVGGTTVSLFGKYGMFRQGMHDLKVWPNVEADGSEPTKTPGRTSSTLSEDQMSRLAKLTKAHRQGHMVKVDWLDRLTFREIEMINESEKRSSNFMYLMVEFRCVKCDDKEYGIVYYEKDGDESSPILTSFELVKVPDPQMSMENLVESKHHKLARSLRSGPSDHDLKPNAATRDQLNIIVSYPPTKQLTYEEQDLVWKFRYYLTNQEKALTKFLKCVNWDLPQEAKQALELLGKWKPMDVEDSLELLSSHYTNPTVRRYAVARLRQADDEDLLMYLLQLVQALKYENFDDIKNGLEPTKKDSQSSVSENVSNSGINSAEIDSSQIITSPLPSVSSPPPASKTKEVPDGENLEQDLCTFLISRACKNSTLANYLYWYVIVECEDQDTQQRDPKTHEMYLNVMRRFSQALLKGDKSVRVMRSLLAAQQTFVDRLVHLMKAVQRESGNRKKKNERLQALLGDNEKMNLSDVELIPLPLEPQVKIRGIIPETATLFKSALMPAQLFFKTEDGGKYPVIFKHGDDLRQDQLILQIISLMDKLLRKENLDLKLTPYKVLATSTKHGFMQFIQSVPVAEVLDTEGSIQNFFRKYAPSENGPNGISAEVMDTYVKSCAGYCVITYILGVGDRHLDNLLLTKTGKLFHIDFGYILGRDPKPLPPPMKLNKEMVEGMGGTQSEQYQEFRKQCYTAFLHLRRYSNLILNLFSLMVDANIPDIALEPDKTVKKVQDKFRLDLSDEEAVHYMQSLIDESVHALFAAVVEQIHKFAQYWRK
# Chain of Phosphatidylinositol 4-phosphate 3-kinase C2 domain-containing subunit alpha (Homo sapiens) (O00443 whole entry, the tested form may be a part): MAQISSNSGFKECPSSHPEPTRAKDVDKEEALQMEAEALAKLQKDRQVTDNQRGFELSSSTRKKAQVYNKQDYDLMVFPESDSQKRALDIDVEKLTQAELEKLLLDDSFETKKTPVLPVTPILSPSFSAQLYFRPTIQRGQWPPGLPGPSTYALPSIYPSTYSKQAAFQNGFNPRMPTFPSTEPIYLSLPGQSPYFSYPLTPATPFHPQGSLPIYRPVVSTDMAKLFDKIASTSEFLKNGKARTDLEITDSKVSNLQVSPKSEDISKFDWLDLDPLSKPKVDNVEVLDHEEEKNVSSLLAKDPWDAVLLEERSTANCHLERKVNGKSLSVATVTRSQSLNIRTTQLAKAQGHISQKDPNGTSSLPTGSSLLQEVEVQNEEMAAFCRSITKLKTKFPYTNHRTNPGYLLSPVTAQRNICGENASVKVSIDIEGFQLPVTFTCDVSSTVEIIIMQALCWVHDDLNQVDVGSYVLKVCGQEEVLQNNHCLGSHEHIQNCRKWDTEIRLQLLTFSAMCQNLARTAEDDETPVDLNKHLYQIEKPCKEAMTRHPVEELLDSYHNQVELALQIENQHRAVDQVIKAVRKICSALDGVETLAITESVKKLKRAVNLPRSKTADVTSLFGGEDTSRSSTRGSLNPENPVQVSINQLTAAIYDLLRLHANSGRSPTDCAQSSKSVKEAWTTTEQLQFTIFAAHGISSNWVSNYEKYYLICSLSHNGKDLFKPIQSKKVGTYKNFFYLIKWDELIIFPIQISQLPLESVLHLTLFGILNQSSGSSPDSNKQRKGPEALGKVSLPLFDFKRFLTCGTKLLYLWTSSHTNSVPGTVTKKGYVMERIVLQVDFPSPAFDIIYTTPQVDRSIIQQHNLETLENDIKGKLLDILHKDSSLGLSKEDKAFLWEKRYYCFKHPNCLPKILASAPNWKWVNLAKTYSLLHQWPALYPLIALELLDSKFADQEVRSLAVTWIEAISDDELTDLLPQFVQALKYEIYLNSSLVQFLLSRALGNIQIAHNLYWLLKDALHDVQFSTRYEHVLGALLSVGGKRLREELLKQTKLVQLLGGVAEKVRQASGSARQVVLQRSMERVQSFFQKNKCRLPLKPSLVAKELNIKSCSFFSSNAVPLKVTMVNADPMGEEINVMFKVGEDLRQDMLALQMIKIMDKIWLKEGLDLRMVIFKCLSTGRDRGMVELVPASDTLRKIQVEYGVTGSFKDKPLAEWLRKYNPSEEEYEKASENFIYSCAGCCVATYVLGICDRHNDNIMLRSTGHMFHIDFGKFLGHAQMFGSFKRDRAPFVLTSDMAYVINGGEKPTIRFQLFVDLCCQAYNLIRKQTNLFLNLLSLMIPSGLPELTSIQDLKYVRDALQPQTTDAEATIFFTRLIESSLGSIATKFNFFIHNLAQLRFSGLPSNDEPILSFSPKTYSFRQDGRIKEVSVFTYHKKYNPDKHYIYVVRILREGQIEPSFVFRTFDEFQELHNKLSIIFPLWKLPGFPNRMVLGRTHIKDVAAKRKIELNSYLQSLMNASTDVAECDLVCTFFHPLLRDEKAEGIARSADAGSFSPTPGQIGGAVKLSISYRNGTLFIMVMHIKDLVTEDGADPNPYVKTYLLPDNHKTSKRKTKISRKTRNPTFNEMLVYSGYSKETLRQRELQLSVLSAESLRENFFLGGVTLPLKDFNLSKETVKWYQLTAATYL
# Chain of Mitogen-activated protein kinase kinase kinase 9 (P80192 whole entry): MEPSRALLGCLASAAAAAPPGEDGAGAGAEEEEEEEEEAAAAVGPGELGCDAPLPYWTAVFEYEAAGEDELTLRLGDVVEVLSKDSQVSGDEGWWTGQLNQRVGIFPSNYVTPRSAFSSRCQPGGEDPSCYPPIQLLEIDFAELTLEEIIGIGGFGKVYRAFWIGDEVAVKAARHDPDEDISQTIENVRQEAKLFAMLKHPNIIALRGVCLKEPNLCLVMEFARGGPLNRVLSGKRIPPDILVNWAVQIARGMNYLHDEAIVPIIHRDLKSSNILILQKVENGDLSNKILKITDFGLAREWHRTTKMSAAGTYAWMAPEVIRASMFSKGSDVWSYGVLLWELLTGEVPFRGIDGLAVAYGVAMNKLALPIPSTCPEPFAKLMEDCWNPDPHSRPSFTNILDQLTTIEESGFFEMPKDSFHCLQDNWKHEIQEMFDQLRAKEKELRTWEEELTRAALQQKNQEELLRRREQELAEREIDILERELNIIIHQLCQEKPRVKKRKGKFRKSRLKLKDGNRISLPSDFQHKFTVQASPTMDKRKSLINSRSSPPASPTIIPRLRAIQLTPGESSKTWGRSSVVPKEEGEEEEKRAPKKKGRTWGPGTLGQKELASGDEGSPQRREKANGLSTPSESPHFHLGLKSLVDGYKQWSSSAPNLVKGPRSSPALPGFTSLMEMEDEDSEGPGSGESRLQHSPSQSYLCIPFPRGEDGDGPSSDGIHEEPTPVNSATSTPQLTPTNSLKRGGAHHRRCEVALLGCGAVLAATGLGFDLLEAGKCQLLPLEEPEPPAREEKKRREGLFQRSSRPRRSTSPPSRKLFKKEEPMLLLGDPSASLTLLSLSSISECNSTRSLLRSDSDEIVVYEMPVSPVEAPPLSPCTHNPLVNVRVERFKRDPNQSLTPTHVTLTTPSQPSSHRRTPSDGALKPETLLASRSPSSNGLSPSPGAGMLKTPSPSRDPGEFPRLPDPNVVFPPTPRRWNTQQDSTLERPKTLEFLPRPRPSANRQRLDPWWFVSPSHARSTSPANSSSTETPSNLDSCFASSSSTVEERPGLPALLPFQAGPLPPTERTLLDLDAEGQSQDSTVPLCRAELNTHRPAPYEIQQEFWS
# Chain of Phosphatidylinositol 4-kinase beta (Homo sapiens) (Q9UBF8 2-816 limits assumed): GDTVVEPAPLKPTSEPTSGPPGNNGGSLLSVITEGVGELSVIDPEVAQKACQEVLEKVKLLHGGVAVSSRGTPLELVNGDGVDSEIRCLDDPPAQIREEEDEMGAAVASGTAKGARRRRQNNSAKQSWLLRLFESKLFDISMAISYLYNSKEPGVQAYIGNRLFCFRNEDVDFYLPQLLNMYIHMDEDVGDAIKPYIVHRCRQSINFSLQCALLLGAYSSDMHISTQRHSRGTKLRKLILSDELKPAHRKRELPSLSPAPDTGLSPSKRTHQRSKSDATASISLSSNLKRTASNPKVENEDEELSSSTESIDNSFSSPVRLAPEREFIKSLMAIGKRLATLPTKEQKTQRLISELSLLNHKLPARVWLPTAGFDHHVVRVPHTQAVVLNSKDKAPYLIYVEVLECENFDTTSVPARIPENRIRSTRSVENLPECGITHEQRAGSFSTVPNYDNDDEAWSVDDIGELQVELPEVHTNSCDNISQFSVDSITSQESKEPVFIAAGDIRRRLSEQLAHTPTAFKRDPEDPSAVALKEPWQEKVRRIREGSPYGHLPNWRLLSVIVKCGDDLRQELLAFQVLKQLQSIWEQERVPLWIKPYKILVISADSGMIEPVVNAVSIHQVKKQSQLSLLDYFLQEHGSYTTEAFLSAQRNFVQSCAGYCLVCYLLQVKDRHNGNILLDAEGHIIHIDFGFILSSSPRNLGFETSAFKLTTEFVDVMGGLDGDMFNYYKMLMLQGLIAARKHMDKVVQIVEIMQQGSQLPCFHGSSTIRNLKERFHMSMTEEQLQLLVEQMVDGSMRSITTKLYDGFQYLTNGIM
smiles,measurement,setting,value
CC(C)(O)c1cc2nc(-c3cnc(N)nc3)nc(N3CCOCC3)c2s1,fraction unbound,[1],0.36
same,inhibition in vivo at 10 mg/kg,Mus musculus [2],75%
same,half-life,[3],3.6 h
same,Activity,Mus musculus [4],Non-toxic
same,Activity,PC-3 [5],inactive
same,fraction unbound,[6],0.51
same,AUC,[7],63 µM·h
same,IC50,[8],0.03 µM
same,IC50,[9],0.371 µM
same,bioavailability,[10],83%
same,inhibition,[11],inactive
same,AUC,[12],21 µM·h
same,clearance,[13],0.096 L/h/kg
same,clearance,[14],1.02 L/h/kg
same,clearance,[15],0.54 L/h/kg
same,Cmax,[16],2.2 µM
same,Cmax,[17],2.1 µM
same,inhibition in vivo at 10 mg/kg,Mus musculus [18],88%
same,inhibition in vivo at 10 mg/kg,Mus musculus [19],81%
same,Vd,[20],3 L/kg
same,Cmax,[21],4.4 µM
same,Vd,[22],2.8 L/kg
same,bioavailability,[23],62%
same,bioavailability,[24],83%
same,fraction unbound,[25],0.21
same,IC50,[26],0.591 µM
same,inhibition in vivo at 10 mg/kg,PC-3 [27],89%
same,IC50,PC-3 [28],0.33 µM
same,Cmax,[29],1.1 µM
same,Vd,[30],2.8 L/kg
same,bioavailability,[31],100%
same,inhibition,[32],65%
same,inhibition in vivo at 10 mg/kg,Mus musculus [33],73%
same,inhibition,[34],inactive
same,inhibition in vivo at 10 mg/kg,Mus musculus [35],80%
same,CLint scaled,[36],1.38 L/h/kg
same,inhibition in vivo at 10 mg/kg,[37],73%
same,clearance,[38],0.9 L/h/kg
same,Activity,Mus musculus [39],Non-toxic
same,inhibition,[40],78%
same,bioavailability,[41],100%
same,inhibition in vivo at 10 mg/kg,Mus musculus [42],98%
same,Activity,PC-3 [43],89%
same,IC50,Aurora kinase A,> 10 µM
same,fraction unbound,[44],0.27
same,Activity,Mus musculus [45],Non-toxic
same,AUC,[46],14 µM·h
same,Vd,[47],1.6 L/kg
same,AUC,[48],3.8 µM·h
